Experimental data taken from ChEMBL document CHEMBL1201862, “PubChem BioAssay data set” (2004).
Active and inactive are the calls of the source.

Columns and labels:
cells = format: functional
[1] = Luminescence Cell-Based Dose Retest to Confirm Inhibitors of Cancer Stem Cells. [Related pubchem assays (depositor defined):AID2717, AID2721]; format: functional; settings: Homo sapiens
Cytochrome P450 2C19 = Cytochrome P450 2C19 (Homo sapiens, UniProt P33261); assay: Cytochrome panel assay with activity outcomes. Panel member name: p450-cyp2c19 Compounds with AC50 equal or less than 10 uM are considered active; format: functional; settings: read-out: AC50
Sequence of Cytochrome P450 2C19 (P33261 whole entry): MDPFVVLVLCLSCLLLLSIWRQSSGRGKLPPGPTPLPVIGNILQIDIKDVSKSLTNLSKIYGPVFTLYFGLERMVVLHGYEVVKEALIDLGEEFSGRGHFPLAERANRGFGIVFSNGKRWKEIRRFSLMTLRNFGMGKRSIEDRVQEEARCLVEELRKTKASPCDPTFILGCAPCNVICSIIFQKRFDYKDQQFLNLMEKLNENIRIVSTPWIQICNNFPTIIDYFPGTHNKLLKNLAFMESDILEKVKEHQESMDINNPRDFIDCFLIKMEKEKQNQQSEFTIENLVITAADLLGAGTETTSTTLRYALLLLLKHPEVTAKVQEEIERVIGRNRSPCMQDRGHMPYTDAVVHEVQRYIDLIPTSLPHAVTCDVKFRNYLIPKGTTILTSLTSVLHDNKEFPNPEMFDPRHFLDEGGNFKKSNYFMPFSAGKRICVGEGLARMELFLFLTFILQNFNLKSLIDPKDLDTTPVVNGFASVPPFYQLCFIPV

Cytochrome P450 1A2 = molecular target: T1, Cytochrome P450 1A2 (Homo sapiens, UniProt P05177);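 further: PubChem cytochrome P450 panel assay, CYP1A2 panel member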
T1 sequence (P05177 whole entry): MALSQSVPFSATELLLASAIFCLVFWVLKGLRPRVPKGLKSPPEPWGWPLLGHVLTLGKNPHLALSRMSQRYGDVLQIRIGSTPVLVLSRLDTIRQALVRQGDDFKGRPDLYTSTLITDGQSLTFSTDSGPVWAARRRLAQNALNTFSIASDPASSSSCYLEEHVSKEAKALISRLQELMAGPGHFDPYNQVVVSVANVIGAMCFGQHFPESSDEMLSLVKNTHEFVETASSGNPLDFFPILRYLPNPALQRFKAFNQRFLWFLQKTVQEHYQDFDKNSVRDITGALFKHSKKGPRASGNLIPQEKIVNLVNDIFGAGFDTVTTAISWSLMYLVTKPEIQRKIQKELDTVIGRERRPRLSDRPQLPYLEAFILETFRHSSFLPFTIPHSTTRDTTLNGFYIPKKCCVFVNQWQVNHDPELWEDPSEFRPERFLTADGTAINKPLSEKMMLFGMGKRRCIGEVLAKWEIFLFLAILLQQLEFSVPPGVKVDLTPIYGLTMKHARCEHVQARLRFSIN

[2] = molecular target: T2, Heat shock factor protein 1 (Mus musculus, UniProt P38532); assay: HSF1 potentiators in luciferase reporter cells, confirmation, cell-based, NIH3T3, luminescence, dose retest (AID 435004); format: functional;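 further: stress induced by proteasome inhibitor MG132 added 30 min after compound; luciferase reporter driven by HSF1 response element in NIH3T3 cells; actives raise luminescence as potentiators of the MG132 stress response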
T2 sequence (P38532 whole entry): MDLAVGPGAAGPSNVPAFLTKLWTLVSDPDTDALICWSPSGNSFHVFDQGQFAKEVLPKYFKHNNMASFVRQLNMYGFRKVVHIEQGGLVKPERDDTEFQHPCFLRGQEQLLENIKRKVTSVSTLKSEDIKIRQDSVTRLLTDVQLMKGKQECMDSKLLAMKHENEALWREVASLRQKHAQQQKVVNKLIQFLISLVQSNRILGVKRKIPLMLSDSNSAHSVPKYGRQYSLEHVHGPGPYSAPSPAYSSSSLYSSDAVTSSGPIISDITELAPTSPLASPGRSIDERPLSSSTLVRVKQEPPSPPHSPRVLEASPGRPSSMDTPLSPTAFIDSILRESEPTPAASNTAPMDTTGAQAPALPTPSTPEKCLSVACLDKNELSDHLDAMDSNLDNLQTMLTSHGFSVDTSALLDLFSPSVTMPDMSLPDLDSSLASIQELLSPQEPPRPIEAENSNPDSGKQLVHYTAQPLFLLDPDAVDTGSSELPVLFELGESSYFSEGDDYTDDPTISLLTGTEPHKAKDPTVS

[3] = molecular target: T3, RNA-binding protein pos-1 (Caenorhabditis elegans, UniProt G5EF15); assay: inhibitors of POS-1/mex-3 RNA binding, dose response, biochemical, fluorescence polarization (AID 1964);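 further: purified POS-1 fused to maltose binding protein made in E. coli; potency of compounds blocking POS-1 binding to fluorescent RNA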
T3 sequence (G5EF15 whole entry): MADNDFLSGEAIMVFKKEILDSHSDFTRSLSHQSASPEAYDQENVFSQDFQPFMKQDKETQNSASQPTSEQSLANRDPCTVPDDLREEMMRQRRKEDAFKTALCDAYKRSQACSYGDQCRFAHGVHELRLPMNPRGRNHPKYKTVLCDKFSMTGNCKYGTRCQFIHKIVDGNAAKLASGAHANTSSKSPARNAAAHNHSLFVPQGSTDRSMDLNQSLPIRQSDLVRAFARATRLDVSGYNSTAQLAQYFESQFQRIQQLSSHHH

[4] = molecular target: T4, Zinc finger protein mex-5 (Caenorhabditis elegans, UniProt Q9XUB2); assay: MEX-5/TCR-2 RNA interaction inhibitors, dose response, biochemical, C. elegans, fluorescence polarization (AID 1960)
T4 sequence (Q9XUB2 whole entry): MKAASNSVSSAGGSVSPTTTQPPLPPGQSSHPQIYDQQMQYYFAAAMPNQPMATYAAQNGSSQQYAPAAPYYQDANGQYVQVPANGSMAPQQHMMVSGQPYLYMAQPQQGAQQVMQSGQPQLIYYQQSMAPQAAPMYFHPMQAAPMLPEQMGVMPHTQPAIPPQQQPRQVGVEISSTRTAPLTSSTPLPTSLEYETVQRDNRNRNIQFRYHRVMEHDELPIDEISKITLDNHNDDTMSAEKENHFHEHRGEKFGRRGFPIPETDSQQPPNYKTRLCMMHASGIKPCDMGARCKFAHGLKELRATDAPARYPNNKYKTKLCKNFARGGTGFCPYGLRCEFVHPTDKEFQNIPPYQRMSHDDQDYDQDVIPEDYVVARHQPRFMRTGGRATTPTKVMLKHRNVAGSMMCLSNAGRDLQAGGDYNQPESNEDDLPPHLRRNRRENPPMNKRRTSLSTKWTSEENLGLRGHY

Cytochrome P450 3A4 = Cytochrome P450 3A4 (Homo sapiens, UniProt P08684);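 further: CYP3A4 tested as one member of a cytochrome P450 panel screen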
Sequence of Cytochrome P450 3A4 (P08684 whole entry): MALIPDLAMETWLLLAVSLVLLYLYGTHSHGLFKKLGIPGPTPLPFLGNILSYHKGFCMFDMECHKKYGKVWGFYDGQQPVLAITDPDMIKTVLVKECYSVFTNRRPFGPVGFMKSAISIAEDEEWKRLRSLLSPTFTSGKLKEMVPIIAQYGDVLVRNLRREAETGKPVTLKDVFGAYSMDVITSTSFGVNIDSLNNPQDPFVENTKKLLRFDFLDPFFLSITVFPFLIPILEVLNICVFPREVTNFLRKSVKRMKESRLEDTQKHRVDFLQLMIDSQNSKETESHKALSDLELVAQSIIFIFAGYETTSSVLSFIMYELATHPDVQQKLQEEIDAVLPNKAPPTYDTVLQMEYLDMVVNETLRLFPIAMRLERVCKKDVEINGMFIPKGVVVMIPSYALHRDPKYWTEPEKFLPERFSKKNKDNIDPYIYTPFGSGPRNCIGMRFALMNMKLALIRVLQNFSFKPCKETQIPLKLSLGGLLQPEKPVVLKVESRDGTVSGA

Cytochrome P450 2D6 = Cytochrome P450 2D6 (Homo sapiens, UniProt P10635);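 further: CYP2D6 member of a cytochrome P450 panel assay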
Sequence of Cytochrome P450 2D6 (P10635 whole entry): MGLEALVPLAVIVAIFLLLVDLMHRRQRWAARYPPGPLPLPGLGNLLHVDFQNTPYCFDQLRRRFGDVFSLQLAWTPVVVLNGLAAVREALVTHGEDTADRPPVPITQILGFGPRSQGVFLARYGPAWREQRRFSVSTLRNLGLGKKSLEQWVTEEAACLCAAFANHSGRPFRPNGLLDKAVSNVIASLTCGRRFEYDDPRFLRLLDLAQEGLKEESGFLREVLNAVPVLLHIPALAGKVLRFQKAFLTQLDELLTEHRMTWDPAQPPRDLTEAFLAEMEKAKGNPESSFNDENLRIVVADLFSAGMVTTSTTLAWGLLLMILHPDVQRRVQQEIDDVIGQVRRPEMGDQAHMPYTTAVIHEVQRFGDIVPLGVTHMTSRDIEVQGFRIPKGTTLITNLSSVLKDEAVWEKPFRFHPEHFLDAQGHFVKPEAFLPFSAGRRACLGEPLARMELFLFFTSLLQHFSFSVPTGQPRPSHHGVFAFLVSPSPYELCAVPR

Cytochrome P450 2C9 = Cytochrome P450 2C9 (Homo sapiens, UniProt P11712)
Sequence of Cytochrome P450 2C9 (P11712 whole entry): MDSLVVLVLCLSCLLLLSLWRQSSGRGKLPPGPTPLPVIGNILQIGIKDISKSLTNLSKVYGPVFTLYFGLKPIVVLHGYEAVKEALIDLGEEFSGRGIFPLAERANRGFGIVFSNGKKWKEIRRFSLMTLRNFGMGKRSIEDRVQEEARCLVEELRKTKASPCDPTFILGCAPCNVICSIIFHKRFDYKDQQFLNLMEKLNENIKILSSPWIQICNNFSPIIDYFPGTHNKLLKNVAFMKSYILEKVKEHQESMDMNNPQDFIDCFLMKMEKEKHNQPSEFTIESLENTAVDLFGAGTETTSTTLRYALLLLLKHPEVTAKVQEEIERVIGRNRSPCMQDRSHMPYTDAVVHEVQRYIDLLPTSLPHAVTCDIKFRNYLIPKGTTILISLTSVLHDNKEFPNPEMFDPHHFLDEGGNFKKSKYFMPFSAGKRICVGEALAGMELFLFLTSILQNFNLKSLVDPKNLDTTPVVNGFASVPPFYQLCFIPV

O=C(Oc1cccc2cccnc12)c1cccc([N+](=O)[O-])c1
IC50 (cells): 10.9 µM (active)

CN(C)CCOc1ccc(C(C)(C)c2ccccc2)cc1
AC50 [1]: 1.96 µM (active)

O=C(O)c1ccccc1C(=O)NNc1ccc(Cl)cc1
AC50 [1]: 0.983 µM (active)
AC50 (Cytochrome P450 2C19): 5.01 µM (inconclusive)
AC50 (Cytochrome P450 1A2): 6.31 µM (inconclusive)

Cc1cc(C(=O)N2CCN(c3ccccn3)CC2)c(C)o1
EC50 [2]: > 260 µM (inactive)

CN(C)CCNc1nc2sc3c(c2c(=O)n1-c1ccccc1)CCCCC3
AC50 [1]: 4.27 µM (active)

CC(=O)Nc1ccc(/C=C/C(=O)c2ccc3c(c2)OCCO3)cc1
EC50 [3]: > 300 µM (not active)
EC50 [4]: > 300 µM (not active)

CC(C)CCNC1c2ccccc2C(=O)N1Cc1ccccc1 (stereo not drawn)
EC50 [2]: > 260 µM (inactive)

COc1ccc(CNc2ccnc(-c3ccccc3CN(C)C)n2)c(OC)c1
AC50 (Cytochrome P450 1A2): 15.8 µM (inconclusive)

CCNc1ncc2nc(-c3cccs3)c(=O)n(Cc3cccc(OC)c3)c2n1
AC50 (Cytochrome P450 1A2): 0.126 µM (inconclusive)
AC50 (Cytochrome P450 3A4): 12.6 µM (inconclusive)

CN1CCN(c2c(F)cc3c(=O)c(C(=O)O)cn4c3c2SCC4)CC1
IC50 (cells): 8.05 µM (active)

Cc1cccc2cc(CN(Cc3ccccc3)C(=O)c3cccc(F)c3)c(Cl)nc12
AC50 (Cytochrome P450 2D6): 15.8 µM (inconclusive)
AC50 (Cytochrome P450 1A2): 11.2 µM (inconclusive)

CCN(CC)CCN/C=C1/C(=O)NC(=O)N(Cc2ccccc2)C1=O
EC50 [3]: > 300 µM (not active)
EC50 [4]: > 300 µM (not active)

O=C(COC(=O)c1cc(Cl)ccc1O)c1ccc2c(c1)OCO2
IC50 (cells): 12.1 µM (active)

COC(=O)CN(C#N)c1nc(SC)nc(N(C)C)n1
IC50 (cells): 18.9 µM (active)

Cc1ccccc1OCCNC=C1C(=O)N(C)C(=O)N(C)C1=O
AC50 (Cytochrome P450 3A4): 20 µM (inconclusive)
AC50 (Cytochrome P450 2C9): 0.0126 µM (inconclusive)

COc1ccccc1NC(=O)C1=C(C)Nc2nnnn2C1c1cccc(Br)c1 (stereo not drawn)
AC50 (Cytochrome P450 2D6): 15.8 µM (inconclusive)
AC50 (Cytochrome P450 1A2): 31.6 µM (inconclusive)

Cc1ccc2cc3c(nc2c1)OCC3
IC50 (cells): > 50 µM (active)

Cc1cccc(CN2CCN([C@@H](c3ccccc3)c3ccc(Cl)cc3)CC2)c1
AC50 (Cytochrome P450 2C19): 2.51 µM (inconclusive)
AC50 (Cytochrome P450 1A2): 10 µM (inconclusive)

CC1=CC(C)(C)N(C)C(=O)N1c1ccc(Cl)cc1
AC50 (Cytochrome P450 1A2): 17.8 µM (inconclusive)
AC50 (Cytochrome P450 2C9): 31.6 µM (inconclusive)

C[C@@H](Cc1ccc(Cl)cc1Cl)NO
AC50 (Cytochrome P450 1A2): 0.251 µM (active)

CCCc1cc(-c2nc(-c3ccc(C)cc3)cs2)ccn1
AC50 [1]: 3.62 µM (active)

O=C(NCCN1CCOCC1)c1cccn2c(=O)c3c4c(sc3nc12)CCCC4
EC50 [3]: > 300 µM (not active)
EC50 [4]: > 300 µM (not active)

CCOC(=O)CSCC(NC(=O)OC(C)(C)C)C(=O)OCC (stereo not drawn)
AC50 (Cytochrome P450 1A2): 25.1 µM (inconclusive)
AC50 (Cytochrome P450 2C9): 14.1 µM (inconclusive)

CCOc1ccc(C(=O)NC2CC3CCCC(C2)N3CC(C)C)cc1 (stereo not drawn)
EC50 [2]: > 260 µM (inactive)

Cc1ccc(C(=O)Cn2nnc3c(sc4nc5c(c(-c6ccccc6)c43)CCC5)c2=O)cc1
AC50 [1]: 0.462 µM (active)
AC50 (Cytochrome P450 2C19): 25.1 µM (inconclusive)
